# Measured values: paper PMC6240096, “A hPSC-based platform to discover gene-environment interactions that impact human β-cell and dopamine neuron survival” (Nature Communications, 2018)
# What was measured:
# Assay type in all cases: cell-based, human
# [1] = test system: INS+ cells; assay: High-content survival / inhibitory curve, hESC-derived INS+ cells; settings: H1 hESC-derived, β-cell differentiation protocol 1, 4 days treatment, n = 8; read-out: IC50 for INS+ cells
# Experimental: The screening library ToxCast Phase I was obtained from the US Environmental Protection Agency, which contains approximately 2000 compounds dissolved at 20 mM in DMSO. The H1 hESC-derived population was dissociated with Accutase and re-plated onto laminin V-coated 384-well plates at 5000 cells per well. After 16 h incubation, cells were treated with individual compounds from the ToxCast library with four concentrations, including 20 nM, 200 nM, 2 μM, and 20 μM, for each compound. After 4 days, the cells were fixed with 10% formalin and stained with an INS antibody and DAPI, followed by automatic imaging and analysis by ImageXpress^MICRO Automated High-Content Analysis System (Molecular Devices) to count the numbers of INS^+ and INS^− cells. The survival rate was calculated by dividing the numbers of INS^+ cells in compound treated conditions by the average number of INS^+ cells in DMSO-treated conditions. The compounds that induced more than 60% reduction of the survival rate of INS^+ cells and less than 20% of the INS^− cells were chosen as primary hits. Hit compounds were then selected and validated in three additional independent experiments using the same protocol as the primary screening.
# (§1) hESCs-derived INS^+ cells, MSCs[43], neurons, and hepatocytes[44] were derived based on the reported protocols and re-plated on 96-well plates with Accutase digestion. Cardiomyocytes (CMs) were differentiated from H9-MYH6: mCherry reporter line, based on the reported protocol. After overnight incubation, cells were treated with DMSO or different doses of hit compounds for 4 days. After fixation, the cells were stained with markers for each cell type. DAPI was used to stain cell nuclei. Plates were analyzed by ImageXpress^MICRO Automated High-Content Analysis System.
# [2] = test system: GSTT1-/- INS+ cells; assay: Inhibition curve on INS+ cells derived from GSTT1-/- H1 hESCs; settings: H1 hESC-derived, n = 3; read-out: IC50 for GSTT1-/--1 INS+ cells
# Experimental: as §1
# CRISPR sgRNA sequences were designed using the web resources available at http://www.genome-engineering.org/. The target sequences are listed in Supplementary Table 2. Each target sequence was cloned into the pX330-U6-Chimeric_BB-CBh-hSpCas9 vector (Addgene plasmid #42230) to make the gene targeting constructs. To knockout the target genes, two sgRNAs were validated using the surveyor assay in 293T cells, and we chose 1 sgRNA-construct plasmid for further experiments. After validation, H1 or INS^GFP/W HES3 cells were dissociated using Accutase (STEM CELL) and electroporated (8 × 10^5 cells per sample) with 4 μg sgRNA-construct plasmids using Human Stem Cell Nucleofector^TM solution (Lonza) following manufacturer’s instructions. […] A portion of the cells was analyzed by DNA sequencing. […]
# [3] = test system: CD29+CD73+ MSCs; assay: Inhibition curve on hESC-derived MSCs; settings: cell survival rate, 4 days, n=3
# Experimental: as §1
# Supplementary Figure 4. Assessment of the toxic effect of propargite on different type […]
# (a) Flow cytometry char acterization of CD29+ and CD73+ mesenchymal stem cells (MSCs) derived from H1 hESCs. (b-c) microscope image (b) and flow cytometry (c) characterization of cardiomyocytes expressing MYH6+ derived from a MYH6:mCherry reporter hESC line. (d-e) Immunocytochemistry characterization of MAP2+/TUJ1+ and HuC/D+/MAP2+ neurons (d) and A1AT+/ASGPR1+ hepatocytes (e) derived from H1 hESCs. All the cells were counterstained by DAPI (blue). Scale bars, 100 µm. (f) Inhibition curve of propargite on pancreatic β-like cells, MSCs, cardiomyocytes, neurons, and hepatocytes derived from hESCs, and BJ-fibroblasts (n=3). Values presented as mean±S.D. […]
substance,measurement,setting,value
2-(4-tert-butylphenoxy)-cyclohexyl prop-2-yne-1-sulfonate [propargite],IC50,[1],1090 nM
same,IC50,[2],1170 nM
same,IC50,[3],5850 nM
